Data on 1 compound can be found in patent publication US6642379B1, “Benzamide derivatives, insecticides for agricultural and horticultural use and usage thereof” (Nihon Nohyaku Co., Ltd., priority 1999, dated 2003).

The test system of this experiment is Diamond Back Moth (Plutella xylostella). The experiment is described as follows: Insecticidal effect on diamond back moth (Test Example 1). It counts as in vivo. Particulars: 144 h, Chinese cabbage seedling with eggs immersed about 30 seconds, 25° C., hatched insects counted six days after immersion, read-out: insecticidal effect (mortality) activity ranking. The source says: Insecticidal Effect on Diamond Back Moth (Plutella xylostella)
Adult diamond back moths were released and allowed to oviposit on a Chinese cabbage seedling. Two days after the release, the seedling having the eggs deposited thereon was immersed for about 30 seconds in a liquid chemical prepared by diluting a preparation containing each compound listed in Tables 1 to 4 as an active ingredient to adjust the concentration to 500 ppm. After air-dryness, it was allowed to stand in a room thermostatted at 25° C. Six days after the immersion, the hatched insects were counted. The mortality was calculated according to the following equation and the insecticidal effect was judged according to the criterion shown below. The test was carried out with triplicate groups of 10 insects. [formula]

What is called mortality is the percentage killed. With `Cc1cc(OC(F)(F)F)ccc1NC(=O)c1cccc(Cl)c1-c1coc(C(C)(C)C)n1` [4-1, 2-(2-t-butyloxazol-4-yl)-3-chloro-2′-methyl-4′-trifluoromethoxybenzanilide], the mortality at 500 ppm turned out to be 100%.
